This assay deals with P388/ADR leukemia. Description: NCI tumour cell line growth inhibition, 48 h.

The values below come from PubChem BioAssay (NCI).

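48-hour exposure; five concentrations; linearly interpolated endpoints. TGI: total growth inhibition.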

For `C[C@H](N)C(=O)N[C@@H]1[C@H]2C(=C(O)C[C@@H](O)[C@@H]2O)C(=O)O[C@]1(C)C(Cl)Cl`, the TGI was 2100 nM.
